This assay addresses human GPR40 receptor (Homo sapiens (Human), UniProt O14842). The assay is described as follows: IP1 accumulation measurements using the IPOne assay system. It is filed as cell-based. The note with it: 1321N1 cells stably expressing human GPR40 receptor, 1 h stimulation. How it is done:
IP1 accumulation measurements using the IPOne assay system—1321N1 cells stably expressing human GPR40 receptor (Euroscreen, Belgium) are seeded 24 h before the assay in white 384-well plates in culture medium containing 10% FCS, 1% Na-Pyruvate and 400 μg/mL G418. IP1 is assayed according to the manufacturer's description (Cisbio Bioassays, France). In brief, the assay is started by substitution of the culture medium by stimulation buffer (Hepes 10 mM, CaCl2 1 mM, MgCl2 0.5 mM, KCl 4.2 mM, NaCl 146 mM, glucose 5.5 mM and LiCl 50 mM, pH 7.4). Cells are stimulated for 1 h at 37° C., 5% CO2 by addition of the compounds that are diluted in stimulation buffer containing LiCl. Assays are stopped by adding HTRF-conjugates (IP1-d2 and Anti-IP1 cryptate Tb) and lysis buffer, provided by the manufacturer. After an incubation time of 1 h at room temperature plates are measured using an EnVision™, Perkin Elmer. The obtained fluorescence ratios at 665/615 […] are then used to calculate the pEC50 values using Assay Explorer 3.3 Software (Accelrys, Inc.) by interpolation using an IP1 reference curve and subsequent sigmoidal curve fitting allowing for a variable hill slope.

pEC50: −log10 of the molar value.

human GPR40 receptor, sequence (O14842 whole entry): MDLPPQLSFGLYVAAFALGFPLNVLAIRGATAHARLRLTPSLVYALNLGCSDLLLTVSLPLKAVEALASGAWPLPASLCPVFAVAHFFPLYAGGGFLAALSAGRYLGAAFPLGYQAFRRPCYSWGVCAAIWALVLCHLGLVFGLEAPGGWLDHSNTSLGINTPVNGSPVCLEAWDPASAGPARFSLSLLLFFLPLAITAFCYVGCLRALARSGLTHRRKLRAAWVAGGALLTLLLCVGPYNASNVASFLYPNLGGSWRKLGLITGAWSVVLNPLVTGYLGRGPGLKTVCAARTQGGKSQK

Consider `CN(C)C(=O)c1ccc(Oc2ccc(F)c3c2CC[C@H]3Oc2ccc3c(c2)OC[C@H]3CC(=O)O)cc1` [Example 63, ((S)-6-{(R)-4-[4-(Dimethylcarbamoyl)phenoxy]-7-fluoro-indan-1-yloxy}-2,3-dihydrobenzofuran-3-yl)-acetic acid], for which the pEC50 was 7.66.
With `CC(C)(O)Cn1cc(-c2cc(F)c(Oc3ccc(F)c4c3CC[C@H]4Oc3ccc4c(c3)OC[C@H]4CC(=O)O)cc2F)cn1` [Example 29, [(S)-6-((R)-4-{2,5-Difluoro-4-[1-(2-hydroxy-2-methylpropyl)-1H-pyrazol-4-yl]phenoxy}-7-fluoro-indan-1-yloxy)-2,3-dihydrobenzofuran-3-yl]-acetic acid] the figure was 7.92.
To `CC(C)(O)CCOc1ccc(Oc2ccc(F)c3c2CC[C@H]3Oc2ccc3c(c2)OC[C@H]3CC(=O)O)cc1C#N` [Example 44, ((S)-6-{(R)-4-[3-Cyano-4-(3-hydroxy-3-methylbutoxy)phenoxy]-7-fluoro-indan-1-yloxy}-2,3-dihydrobenzofuran-3-yl)-acetic acid] belongs 8.15; to `CC(C)(O)CCCc1ccc(Oc2ccc(F)c3c2CC[C@H]3Oc2ccc3c(c2)OC[C@H]3CC(=O)O)nc1` [Example 23, [(S)-6-{(R)-7-Fluoro-4-[5-(4-hydroxy-4-methyl-pentyl)-pyridin-2-yloxy]-indan-1-yloxy}-2,3-dihydro-benzofuran-3-yl]-acetic acid], 7.08; to `CC(C)(O)CCCc1ccc(Oc2ccc(F)c3c2CC[C@H]3Oc2ccc3c(c2)OC[C@H]3CC(=O)O)cc1` [Example 28, ((S)-6-{(R)-7-Fluoro-4-[4-(4-hydroxy-4-methylpentyl)phenoxy]-indan-1-yloxy}-2,3-dihydrobenzofuran-3-yl)-acetic acid], 7.70.
`CC(C)(O)CCn1ncc2cc(Oc3ccc(F)c4c3CC[C@H]4Oc3ccc4c(c3)OC[C@H]4CC(=O)O)ccc21` [Example 30, ((S)-6-{(R)-7-Fluoro-4-[1-(3-hydroxy-3-methylbutyl)-1H-indazol-5-yloxy]-indan-1-yloxy}-2,3-dihydrobenzofuran-3-yl)-acetic acid] had a pEC50 of 7.89.
To `O=C(O)C[C@@H]1COc2cc(O[C@@H]3CCc4c(Oc5ccc(OCC6(O)CCOCC6)c(F)c5)ccc(F)c43)ccc21` [Example 37, [(S)-6-((R)-7-Fluoro-4-{3-fluoro-4-[(4-hydroxytetrahydro-2H-pyran-4-yl)-methoxy]phenoxy}-indan-1-yloxy)-2,3-dihydrobenzofuran-3-yl]-acetic acid] belongs 8.10; to `CS(=O)(=O)CCCOc1c(F)cc(Oc2ccc(F)c3c2CC[C@H]3Oc2ccc3c(c2)OC[C@H]3CC(=O)O)cc1F` [Example 19, [(S)-6-{(R)-4-[3,5-Difluoro-4-(3-methanesulfonyl-propoxy)-phenoxy]-7-fluoro-indan-1-yloxy}-2,3-dihydro-benzofuran-3-yl]-acetic acid], 7.92; to `CC(C)(O)Cn1cc(-c2c(F)cc(Oc3ccc(F)c4c3CC[C@H]4Oc3ccc4c(c3)OC[C@H]4CC(=O)O)cc2F)cn1` [Example 20, {(S)-6-[(R)-4-{3,5-Difluoro-4-[1-(2-hydroxy-2-methyl-propyl)-1H-pyrazol-4-yl]-phenoxy}-7-fluoro-indan-1-yloxy]-2,3-dihydro-benzofuran-3-yl}-acetic acid], 8.15.
With `Cn1nnnc1-c1ccc(Oc2ccc(F)c3c2CC[C@H]3Oc2ccc3c(c2)OC[C@H]3CC(=O)O)cc1` [Example 14, [(S)-6-{(R)-7-Fluoro-4-[4-(1-methyl-1H-tetrazol-5-yl)-phenoxy]-indan-1-yloxy}-2,3-dihydro-benzofuran-3-yl]-acetic acid] the figure was 7.64.
With `CC(C)(O)Cn1cc(-c2cc(F)c(Oc3ccc(F)c4c3CC[C@H]4Oc3ccc4c(c3)OC[C@H]4CC(=O)O)c(F)c2)cn1` [Example 31, [(S)-6-((R)-4-{2,6-Difluoro-4-[1-(2-hydroxy-2-methylpropyl)-1H-pyrazol-4-yl]phenoxy}-7-fluoro-indan-1-yloxy)-2,3-dihydrobenzofuran-3-yl]-acetic acid] the figure was 7.24; with `Cc1ncc(-c2ccc(Oc3ccc(F)c4c3CC[C@H]4Oc3ccc4c(c3)OC[C@H]4CC(=O)O)cc2)s1` [Example 22, [(S)-6-{(R)-7-Fluoro-4-[4-(2-methyl-thiazol-5-yl)-phenoxy]-indan-1-yloxy}-2,3-dihydro-benzofuran-3-yl]-acetic acid], 8.30; with `O=C(O)C[C@@H]1COc2cc(O[C@@H]3CCc4c(Oc5ccc(O[C@H]6CCOC6)cn5)ccc(F)c43)ccc21` [Example 18, {(S)-6-[(R)-7-Fluoro-4-{5-[(S)-tetrahydro-furan-3-yloxy}-pyridin-2-yloxy}-indan-1-yloxy]-2,3-dihydro-benzofuran-3-yl}-acetic acid], 7.51.
With `CC(C)(O)CCOc1ccc(F)c(Oc2ccc(F)c3c2CC[C@H]3Oc2ccc3c(c2)OC[C@H]3CC(=O)O)c1` [Example 45, ((S)-6-{(R)-7-Fluoro-4-[2-fluoro-5-(3-hydroxy-3-methylbutoxy)phenoxy]-indan-1-yloxy}-2,3-dihydrobenzofuran-3-yl)-acetic acid], the pEC50 is 7.54.
To `CC(C)(O)CCOc1ccc(Oc2ccc(F)c3c2CC[C@H]3Oc2ccc3c(c2)OC[C@H]3CC(=O)O)nc1` [Example 17, [(S)-6-{(R)-7-Fluoro-4-[5-(3-hydroxy-3-methyl-butoxy)-pyridin-2-yloxy]-indan-1-yloxy}-2,3-dihydro-benzofuran-3-yl]-acetic acid] belongs 7.64; to `CC(C)(O)CCCc1ccc(Oc2ccc(F)c3c2CC[C@H]3Oc2ccc3c(c2)OC[C@H]3CC(=O)O)c(C#N)c1` [Example 56, ((S)-6-{(R)-4-[2-Cyano-4-(4-hydroxy-4-methylpentyl)phenoxy]-7-fluoro-indan-1-yloxy}-2,3-dihydrobenzofuran-3-yl)-acetic acid], 7.42; to `N#Cc1ccc(Oc2ccc(F)c3c2CC[C@H]3Oc2ccc3c(c2)OC[C@H]3CC(=O)O)cc1OC1CCOCC1` [Example 51, ((S)-6-{(R)-4-[4-Cyano-3-(tetrahydro-2H-pyran-4-yloxy)phenoxy]-7-fluoro-indan-1-yloxy}-2,3-dihydrobenzofuran-3-yl)-acetic acid], 7.54.
Take `O=C(O)C[C@@H]1COc2cc(O[C@@H]3CCc4c(Oc5ccc(-c6nnn[nH]6)cc5)ccc(F)c43)ccc21` [Example 13, [(S)-6-{(R)-7-Fluoro-4-[4-(1H-tetrazol-5-yl)-phenoxy]-indan-1-yloxy}-2,3-dihydro-benzofuran-3-yl]-acetic acid]: the pEC50 was 6.55.
To `Cn1ccnc1-c1ccc(Oc2ccc(F)c3c2CC[C@H]3Oc2ccc3c(c2)OC[C@H]3CC(=O)O)cc1` [Example 38, ((S)-6-{(R)-7-Fluoro-4-[4-(1-methyl-1H-imidazol-2-yl)phenoxy]-indan-1-yloxy}-2,3-dihydrobenzofuran-3-yl)-acetic acid] belongs 7.39; to `Cn1nccc1-c1ccc(Oc2ccc(F)c3c2CC[C@H]3Oc2ccc3c(c2)OC[C@H]3CC(=O)O)c(F)c1` [Example 55, ((S)-6-{(R)-7-Fluoro-4-[2-fluoro-4-(1-methyl-1H-pyrazol-5-yl)phenoxy]-indan-1-yloxy}-2,3-dihydrobenzofuran-3-yl)-acetic acid], 8.22.
